According to patent US20190048052A1, “ANTI-MICROBIAL PEPTIDES AND COATINGS” (Board of Regents of the University of Nebraska, priority 2016, published 2019):
Values after ≈ are worked out from the molar mass of the structure shown. Like-named read-outs stand apart in the source and are kept apart here. Non-standard residues stand in square brackets, D forms with d. Residues, ends and D or L forms follow the SMILES beside them. Bip = N[C@@H](Cc1ccc(-c2ccccc2)cc1)C(=O)O

Legend:
[1] = system: E. faecium ATCC51559; assay type: cell-based, Enterococcus faecium
Method: (§1) Bacterial strains used in this study included Enterococcus faecium ATCC51559, Staphylococcus aureus USA300 LAC, Klebsiella pneumoniae ATCC 13883, Acinetobacter baumannii B2367-12, Pseudomonas aeruginosa PAO1, Enterobacter cloacae B2366-12 and Escherichia coli ATCC 25922, wherein the first six constituting the ESKAPE pathogens. Tryptic soy broth (TSB) for bacterial growth was obtained from BD Bioscience (Sparks, Md.).
(§2) The antibacterial activity of peptides was evaluated using a standard broth microdilution protocol as described (Wang et al. (2012) Antimicrob. Agents Chemother., 56:845-856). In brief, 5 μl of each bacterium (stored at −80° C.) were inoculated into TSB medium (2 ml) and grown overnight. A second inoculation was made in the morning by delivering 10 μl of the overnight culture to a fresh TSB medium. After 2-3 hours growth at 37° C., 225 rpm, logarithmic phase bacterial cultures (OD600≈0.5) were diluted and partitioned into a 96-well polystyrene microplate with ˜10^5 colony forming units (CFU) per well (90 μl aliquots). After treatment with 10 μl of peptide solutions at various concentrations, microplates were incubated at 37° C. overnight and read on a ChroMate® 4300 Microplate Reader at 630 nm (GMI, Ramsey, Minn.). The medium was used as a blank where no bacteria should grow.

[2] = system: E. coli ATCC 25922; assay type: cell-based, Escherichia coli
Method: as §1, §2

[3] = system: E. cloacae B2366-12; assay type: cell-based, Enterobacter cloacae
Method: as §1, §2

[4] = system: A. baumannii B2367-12; assay type: cell-based, Acinetobacter baumannii
Method: as §1, §2

[5] = system: S. aureus USA300 LAC; assay type: cell-based, Staphylococcus aureus
Method: as §1, §2

[6] = system: P. aeruginosa PAO1; assay type: cell-based, Pseudomonas aeruginosa
Method: as §1, §2

[7] = Hemolytic assay; assay type: cell-based; conditions: red blood cells, hemolysis
Method: Hemolytic analysis of selected peptides was performed using an established protocol (Mishra et al. (2015) RSC Advances 5:59758-59769). Briefly, human blood cells (UNMC Blood Bank) were washed three times with phosphate buffer saline (PBS) and diluted to a 2% solution. After peptide treatment, incubation at 37° C. for one hour, and centrifugation at 13,000 rpm, aliquots of the supernatant were transferred to a fresh 96-well microplate. To assess peptide cytotoxicity, the amount of hemoglobin released was measured at 545 nm. The percent lysis was calculated by assuming 100% release when human blood cells were treated with 1% TRITON™ X-100, and 0% release when incubated with PBS buffer. The hemolytic assays using chicken, bovine, and porcine blood cells (Lampire Biological Laboratories, Inc.) were performed in the same manner.

[8] = system: Candida albicans ATCC 10231; assay type: cell-based; conditions: ATCC 10231, 48 h
Method: (§3) Fungal strains used in this study include Candida albicans ATCC 10231, C. glabrata ATCC 2001 and C. tropicalis ATCC 13803. The fungi were grown in Remel Dex broth (Thermo Fisher Scientific, KS). Antifungal assays were conducted essentially as described for antibacterial assays above, except for a higher starting density at an OD600 0.02 and a longer incubation time of ˜48 hours prior to microplate reading (Mishra et al. (2015) RSC Advances 5:59758-59769).

[9] = system: C. glabrata ATCC 2001; assay type: cell-based, Candida glabrata; conditions: ATCC 2001, 48 h
Method: as §3

[10] = system: S. epidermidis 1457; assay type: cell-based, Staphylococcus epidermidis
Method: (§4) The bacterial strains used here included Gram-positive bacteria Staphylococcus aureus USA300 LAC, Staphylococcus epidermidis 1457, Bacillus subtilis 168, and Gram-negative Escherichia coli K12. Clinical strains of S. aureus, including Mu50, UAMS-1 and Newman, were also evaluated.
(§5) The antimicrobial activity of peptides was evaluated using a standard broth microdilution protocol (Wang, G. (2008) J. Biol. Chem., 283:32637-32643). In brief, exponential phase bacteria at 10^6 CFU were incubated with serially diluted peptides overnight for ˜20 hours at 37° C. The plates were read on a ChroMate® 4300 Microplate Reader at 630 nm (GMI, Ramsey, Minn.). […] In addition, the effects of human serum (up to 10%), pH (6.8, 7.4 and 8.0) and 150 mM sodium chloride (NaCl) on MICs against S. aureus USA300 were also evaluated (Mishra et al. (2015) RSC Advances 5:59758-59769).

[11] = system: C. tropicalis ATCC 13803; assay type: cell-based, Candida tropicalis; conditions: ATCC 13803, 48 h
Method: as §3

[12] = system: B. subtilis 168; assay type: cell-based, Bacillus subtilis
Method: as §4, §5

[13] = system: E. coli K12; assay type: cell-based, Escherichia coli; conditions: K12
Method: as §4, §5

[14] = MTS cytotoxicity assay; assay type: cell-based; conditions: human
Method: (§6) HeLa CCL-2 epithelial adenocarcinoma cells from American Type Culture Collection (ATCC) were maintained in DMEM high glucose media with 4 mM L-glutamine (NyClone) and 100 U/mL penicillin, 100 μg/mL streptomycin (pen/strep) (Life Technologies), and 10% (v/v) inactivated fetal bovine serum (FBS) (NyClone). Cells were grown in 5% CO2 at 37° C. and were detached from the culturing dish at 80% confluency using 0.025% trypsin-EDTA (NyClone) treatment. Peptide influence on the cell viability was estimated by using the MTS assay according to the manufacturer's protocol (MTS, CellTiter96® AQ One Solution Cell Proliferation Assay, Promega) with minor modifications and as described elsewhere (Mishra et al. (2015) RSC Advances 5:59758-59769). In short, cells were cultured in flat bottomed 96 well microtiter plates (Corning Life Science) at a seeding density of 20,000 cells/well. At confluence ˜100% achieved after 20-24 hours of cultivation, the cells were washed twice with 100 μL Dulbecco's Phosphate Buffered Saline (Life Technologies). Further, 90 μL of DMEM media with 10% FBS, pen/step was added before exposure to 10 μL of the peptide solution in the concentration range 12.5-100 μM. Plates were incubated at 37° C. After 1 hour, 10 μL MTS, CellTiter96® was added. Plates were further incubated for another 2 hours at 37° C. and finally, the absorbance was measured on ChroMate® reader (Awareness Technology) at 492 nm. Culture medium and 0.2% SDS were used as negative and positive controls, respectively.
Human skin HaCaT (immortalized keratinocyte from AddexBio, T0020001) and kidney HEK293 cells were also cultivated for cytotoxicity evaluation of the peptides in a similar manner.

[15] = MTS cytotoxicity assay; assay type: cell-based; conditions: human, HeLa CCL-2 cells
Method: as §6

[16] = system: S. aureus UAMS-1; assay type: cell-based, Staphylococcus aureus
Method: as §4, §5

[17] = system: S. aureus Mu50; assay type: cell-based, Staphylococcus aureus
Method: as §4, §5

[18] = system: S. aureus USA300; assay type: cell-based, Staphylococcus aureus
Method: as §4, §5

[19] = system: S. aureus Newman; assay type: cell-based, Staphylococcus aureus
Method: as §4, §5

[20] = system: S. aureus USA300; assay type: cell-based, Staphylococcus aureus; conditions: USA300
Method: The minimal bactericidal concentration (MBC) was determined by plating 50 μl of the content in the clear wells of the above MIC assays. MBC was determined on the petri dishes without bacterial colony formation after overnight growth (Wang et al. (2012) Biochemistry 51:653-664).

CC[C@H](C)[C@H](NC(=O)[C@H](CCCNC(=N)N)NC(=O)[C@H](CCC(N)=O)NC(=O)[C@@H](NC(=O)[C@@H](NC(=O)[C@H](CCCNC(=N)N)NC(=O)[C@H](CCCCN)NC(=O)[C@H](Cc1ccccc1)NC(=O)[C@@H](N)CS)[C@@H](C)CC)C(C)C)C(=O)N[C@@H](CCCCN)C(=O)N[C@@H](CC(=O)O)C(=O)N[C@@H](Cc1ccccc1)C(=O)N[C@@H](CC(C)C)C(=O)N[C@@H](CCCNC(=N)N)C(=O)N[C@@H](CC(N)=O)C(=O)N[C@@H](CC(C)C)C(=O)N[C@H](C(N)=O)C(C)C [CysFK-16] (H-CFKRIVQRIKDFLRNLV-NH2; N-terminus and C-terminus assumed)
MIC EF [1]: 6.25 µM (≈ 13.4 µg/mL)
MIC EC [2]: > 50 µM
MIC ECl [3]: > 50 µM
MIC AB [4]: 25 µM (≈ 53.7 µg/mL)
MIC SA [5]: 18 µM (≈ 38.7 µg/mL)
MIC PA [6]: > 50 µM

CC(C)C[C@H](NC(=O)[C@H](CC(N)=O)NC(=O)[C@H](CCCNC(=N)N)NC(=O)[C@@H](CC(C)C)NC(=O)[C@H](Cc1ccc(-c2ccccc2)cc1)NC(=O)[C@H](CC(=O)O)NC(=O)[C@H](CCCCN)NC(=O)[C@@H](CC(C)C)NC(=O)[C@H](CCCNC(=N)N)NC(=O)[C@H](CCC(N)=O)NC(=O)[C@@H](NC(=O)[C@@H](CC(C)C)NC(=O)[C@H](CCCNC(=N)N)NC(=O)[C@H](CCCCN)NC(=O)[C@H](Cc1ccc(-c2ccccc2)cc1)NC(=O)CN)C(C)C)C(=O)N[C@H](C(N)=O)C(C)C [Merecidin, reference compound] (H-G[Bip]KR[dL]VQR[dL]KD[Bip][dL]RNLV-NH2; N-terminus and C-terminus assumed)
MIC EF ([1]; ATCC51559): ≤3.1 µM
MIC EC ([2]; ATCC 25922): 3.1 ± 0 µM (≈ 6.99 µg/mL)
MIC ECl ([3]; B2366-12): 6.25 ± 0 µM (≈ 14.1 µg/mL)
MIC AB ([4]; B2367-12): 3.1 ± 0 µM (≈ 6.99 µg/mL)
MIC SA ([5]; USA300): 3.1 ± 0 µM (≈ 6.99 µg/mL)
MIC PA ([6]; PAO1): 6.25 ± 0 µM (≈ 14.1 µg/mL)

CC[C@H](C)[C@H](NC(=O)[C@H](CCCNC(=N)N)NC(=O)[C@H](CCCCN)NC(=O)[C@H](CC(C)C)NC(=O)[C@H](Cc1c[nH]c2ccccc12)NC(=O)[C@H](Cc1c[nH]c2ccccc12)NC(=O)[C@@H](N)Cc1c[nH]c2ccccc12)C(=O)N[C@@H](Cc1c[nH]c2ccccc12)C(N)=O [TetraF2W-KR, WWWLKRIW] (H-WWWLKRIW-NH2; N-terminus and C-terminus assumed)
CC50 at 1 hour ([7]; chicken, read-out: LC50 Chicken RBCs): 35 µM
CC50 at 1 hour ([7]; human, read-out: LC50 Human RBCs): 30 µM
CC50 at 1 hour ([7]; pig, read-out: LC50 Porcine RBCs): 50 µM
MIC Candida albicans [8]: 12.5 µM (≈ 15.9 µg/mL)
MIC Candida glabrata [9]: 12.5 µM (≈ 15.9 µg/mL)
MIC S. epidermidis 1457 [10]: 12.5 µM (≈ 15.9 µg/mL)
MIC Candida tropicalis [11]: 3.1 to 6.2 µM
MIC B. subtilis 168 [12]: 6.2 µM (≈ 7.89 µg/mL)
MIC E. coli K12 [13]: 12.5 to 25 µM
CC50 at 1 hour ([14]; HEK293 cells): 55 µM
CC50 at 1 hour ([14]; HaCaT cells): 60 µM
CC50 at 1 hour [15]: 100 µM
Antimicrobial activity (MIC) UAMS-1 [16]: 6.2 µM
Antimicrobial activity (MIC) Mu50 [17]: 6.2 µM
change in MIC on drop of pH from 8 to 6.8 ([18]; S. aureus USA300): two-fold
Antimicrobial activity (MIC) 150 mM NaCl ([18]; USA300): 3.1 µM
Antimicrobial activity (MIC) USA300 ([18]; USA300): 3.1 µM
MIC S. aureus USA300 ([18]; USA300): 3.1 µM (≈ 3.94 µg/mL)
Antimicrobial activity (MIC) pH 6.8 ([18]; USA300, pH 6.8): 6.2 μM
Antimicrobial activity (MIC) Normal medium (pH 7.4) ([18]; USA300, pH 7.4): 3.1 μM
Antimicrobial activity (MIC) pH 8 ([18]; USA300, pH 8): 3.1 μM
Antimicrobial activity (MIC) Newman [19]: 3.1 to 6.2 µM
MBC S. aureus USA300 [20]: 12.5 µM (≈ 15.9 µg/mL)
